Laboratory results reported in patent US20260035403A1, “NUCLEOSIDE LINE-1 INHIBITORS” (TRANSPOSON THERAPEUTICS, INC., priority 2022, published 2026).
pIC50: −log10 of the molar value.

System: human LINE-1
Test: Human LINE-1 retrotransposition assay (HeLa cell-based dual-luciferase reporter)
Details: Homo sapiens, HeLa, 72 h, Human LINE-1 activity inhibition; HeLa cells, reporter plasmid pYX017, Firefly/Renilla, 72 h incubation
Method in brief: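 HeLa cells transfected with pYX017 dual-luciferase L1 reporter and treated with serially diluted compound (0.2% DMSO final) for 72 h at 37° C. Relative L1 activity as Firefly/Renilla ratio; IC50 from four-parameter logistic fit.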

Row | Structure (SMILES) | pIC50
1 | CC[C@]1(CO)O[C@@H](n2cnc3c(N)ncnc32)[C@@H](O)[C@@H]1O [compound 194, (2R,3S,4S,5R)-5-(6-amino-9H-purin-9-yl)-2-ethyl-2-(hydroxymethyl)tetrahydrofuran-3,4-diol] | 5.71
2 | CC[C@]1(CO)O[C@@H](n2cnc3c(N)nc(Cl)nc32)[C@H](O)[C@@H]1O [compound 195, (2R,3S,4R,5R)-5-(6-amino-2-chloro-9H-purin-9-yl)-2-ethyl-2-(hydroxymethyl)tetrahydrofuran-3,4-diol] | < 4.30
3 | CC[C@]1(CO)O[C@@H](n2cnc3c(N)ncnc32)[C@H](O)[C@@H]1O [compound 196, (2R,3S,4R,5R)-5-(6-amino-9H-purin-9-yl)-2-ethyl-2-(hydroxymethyl)tetrahydrofuran-3,4-diol] | < 4.30
4 | C[C@]1(CO)O[C@@H](n2ccc(N)nc2=O)[C@H](O)[C@@H]1O [compound 198, 4-amino-1-((2R,3R,4S,5R)-3,4-dihydroxy-5-(hydroxymethyl)-5-methyltetrahydrofuran-2-yl)pyrimidin-2(1H)-one] | < 4.30
5 | C#C[C@]1(CO)O[C@@H](n2ccc(N)nc2=O)C(F)(F)[C@@H]1O [compound 200, 4-amino-1-((2R,4R,5R)-5-ethynyl-3,3-difluoro-4-hydroxy-5-(hydroxymethyl)tetrahydrofuran-2-yl)pyrimidin-2(1H)-one] | 3.38
